logP data for 142 compounds are collected here from the SangsterLogP compilation.

A word on the logP: it is the decadic logarithm of the partition coefficient of the neutral form, usually between octanol and water. For the compound `O=C(O)COc1cccc(Br)c1`, the logP is 2.22.

Compound `CN1C(C(=O)Nc2ccccn2)=C(O)c2ccccc2S1(=O)=O` displayed a logP of 3.06.

For the compound `CCCCOCCO`, the logP is 0.83. In turn, `O=C(O)c1ccc(Oc2ccccc2)cc1` registered a logP of 3.91. With `Nc1ccn([C@H]2C[C@H](F)[C@@H](CO)O2)c(=O)n1` the figure was -0.89; with `O=C(O)CCCCCCCC(=O)O`, 1.57.

`Cn1c([N+](=O)[O-])cnc1COC(N)=O` had a lipophilicity (logP) of -0.38.

The compound `CNc1ccc(S(N)(=O)=O)cc1` returned a logP of 0.08. For `O=C(O)COc1ccccc1[N+](=O)[O-]` the value was 1.13; for `NC(=O)c1cc([N+](=O)[O-])cc([N+](=O)[O-])c1`, 0.83.

`ClCCl` registered a logP of 1.25. For `Cn1cccc1` the value was 1.21. With `CCc1cccc(OCC(=O)O)c1` the figure was 2.25; with `CN(C)CCCN1c2ccccc2Sc2ccccc21`, 4.55; with `N#Cc1cccc([N+](=O)[O-])c1`, 1.17. For `C[C@]12CCC(=O)C=C1CC[C@@H]1[C@@H]2[C@@H](O)C[C@]2(C=O)[C@@H](C(=O)CO)CC[C@@H]12` the value was 1.08; for `Cc1cn([C@H]2C[C@H](F)[C@@H](CO)O2)c(=O)[nH]c1=O`, -0.28; for `COC(=O)C(C#N)=NNc1cc(C(F)(F)F)ccc1[N+](=O)[O-]`, 3.44.

`CNC(=O)Oc1cccc(C)c1` registered a logP of 1.7. Compound `C=CCNCCC` yielded a logP of 1.33.

For the compound `c1cc2c3c(cccc3c1)CC2`, the log partition coefficient (logP) came to 3.92.

`NC(=O)Cc1cccnc1` came in with a log partition coefficient (logP) of -0.71. For `NS(=O)(=O)c1cc2c(cc1Cl)N=CNS2(=O)=O` the value was -0.24. With `CNC(=O)Oc1cccc(C(C)=O)c1` the figure was 0.9; with `CC1(C)S[C@@H]2[C@H](NC(=O)C(C(=O)O)c3ccccc3)C(=O)N2[C@H]1C(=O)O` (some centres not stated), 1.13. Take `CC(C)n1nnc2ccccc21`: the logP came to 1.98. For `COC(=O)C(C#N)=NNc1cc(Cl)cc(Cl)c1` the value was 4.5; for `CSc1ccccc1`, 2.74. With `O=C1c2ccccc2C(=O)C1c1ccccc1` the figure was 2.9; with `OCC(Cl)(Cl)Cl`, 1.42; with `CCCC[N+](=O)[O-]`, 1.47.

`Cc1ccc2cc(C)ccc2c1` showed a lipophilicity (logP) of 4.31.

Turning to `CCCCNc1ccc(C(=O)OCCN(C)C)cc1`, the lipophilicity (logP) was found to be 3.51. With `CCOc1ccccc1O` the figure was 1.68; with `O=[N+]([O-])c1cc[n+]([O-])c2ccccc12`, 1.09.

The compound `CC(C)[C@H](N)C(=O)O` returned a logP of -2.26. With `O=C(O)c1ccccc1I` the figure was 2.4; with `CCCCNC(=O)NCCCC`, 1.4. For `CCOC(C)OCC` the value was 0.84. For `Clc1nc2c(Cl)c(Cl)c(Cl)c(Cl)c2[nH]1` the value was 4.53. Regarding `Brc1ccc2[nH]ccc2c1`, the logP worked out at 3. For `CCc1ccccn1` the value was 1.69; for `CC(=O)Nc1ccc(F)cc1`, 1.47. With `Nc1ncnc2c1ncn2[C@H]1CC[C@@H](CO)O1` the figure was -0.25; with `CC(CN1CCOCC1)C(C(=O)N1CCCC1)(c1ccccc1)c1ccccc1` (configuration not stated), 3.61; with `Cc1cnc(NC(=O)C2=C(O)c3ccccc3S(=O)(=O)N2C)s1`, 3.43. Compound `Cc1ccccc1N` showed a logP of 1.32.

`O=c1ccn([C@@H]2O[C@H](CO)[C@@H](O)[C@H]2O)c(=O)[nH]1` had a lipophilicity (logP) of -1.98. With `COc1ccccc1OCC(=O)O` the figure was 0.98; with `CCCSc1nnc(C(C)C)c(=O)n1N`, 2.12; with `NCCc1cccnc1`, -0.11. With `N=c1ccn(O)c2ccccc12` the figure was 0.05; with `OCc1ccncc1`, 0.06; with `CC(C)N`, 0.26. For `NS(=O)(=O)c1cccc2cccnc12` the value was 0.42; for `OCCCCc1ccccc1`, 2.35. The compound `c1ccc2c(c1)ccc1c3ccccc3ccc21` yielded a logP of 5.81. For `Nc1nc(S)c2nc[nH]c2n1` the value was -0.07; for `OC[C@H]1O[C@@H](n2cnc3c(O)ncnc32)[C@H](O)[C@@H]1O`, -2.1; for `Nc1ccc(S(=O)(=O)Nc2ccnn2-c2ccccc2)cc1`, 1.52.

Compound `O=c1cn[nH]c(=O)[nH]1` registered a logP of -0.59. Consider `O=S(c1ccccc1)c1ccccc1`, for which the logP turned out to be 2.06.

Take `Nc1nc(N)c2ncn([C@H]3C[C@H](O)[C@@H](CO)O3)c2n1`: the lipophilicity (logP) is -0.52. `Cc1ccc(C)c(C)c1` had a logP of 3.63. For `O=[N+]([O-])c1ccc2c(ccc[n+]2[O-])c1` the value was 0.39. For `Cc1cccc(O)c1` the value was 1.96; for `OCC1OC(Oc2ccc(O)cc2)C(O)C(O)C1O` (configuration not stated), -1.35. With `COC(=O)C(C#N)=NNc1cccc(C(F)(F)F)c1` the figure was 3.78; with `CC(=O)Nc1ccc([N+](=O)[O-])cc1`, 1.66; with `O=[N+]([O-])c1ccc(Cl)cc1`, 2.39.

`NNc1ccccc1` gave a logP of 1.25.

Compound `COc1ccc(NC(C)=O)cc1` returned a lipophilicity (logP) of 1.03. For `CC(=O)Nc1ccc(C(=O)O)cc1` the value was 1.31; for `Cc1cccc(S(N)(=O)=O)c1`, 0.85. For `S=C1NCCN1` the value was -0.66; for `Nc1ccc2ccccc2c1`, 2.28. For `Nc1ncnc2c1ncn2[C@H]1C[C@H](F)[C@@H](CO)O1` the value was 0.08; for `Cc1ccc(N=C=S)cc1`, 3.92. For the compound `O=C(O)CSc1ccccc1`, the logP was 1.91. For `O=C(O)c1ccccn1` the value was 0.72.

In turn, `Cc1cccc2c(C)cccc12` had a lipophilicity (logP) of 4.38.

In the case of `CCCCOc1cc(C(=O)NCCN(CC)CC)c2ccccc2n1`, the logP was 4.4. `FC(F)(Cl)C(F)(F)Cl` returned a logP of 2.82. In the case of `Nc1ccc(Cl)cc1`, the logP worked out at 1.83.

`O=[N+]([O-])/C=C/c1ccoc1` showed a lipophilicity (logP) of 1.41. With `CCc1ccccc1Cl` the figure was 2.95. In turn, `O=[N+]([O-])c1cncn1CCN1CCOCC1` had a logP of 0.07. With `O=C(O)c1c(O)cccc1O` the figure was 2.2; with `O=C1CCCO1`, -0.64; with `CC(C)(C)NCC(O)COc1nsnc1N1CCOCC1` (configuration not stated), 1.83.

The compound `CCCN(CCC)CCC` came in with a log partition coefficient (logP) of 2.79. Consider `O=c1[nH]cc(F)c(=O)[nH]1`, for which the lipophilicity (logP) was -0.89. With `O=C(O)c1ccc(O)cc1` the figure was 1.58.

Compound `Cc1c[nH]c(=O)[nH]c1=O` registered a lipophilicity (logP) of -0.62. With `C[C@H](CS)C(=O)N1CCC[C@H]1C(=O)O` the figure was 0.34. With `CC(N)C(O)c1ccccc1` (configuration not stated) the figure was 0.67. With `O=[N+]([O-])c1cccc(Cl)c1` the figure was 2.46; with `FC(F)(F)c1ccc2cccnc2c1`, 3.02. In the case of `CCc1ccccc1O`, the logP stood at 2.47.

Compound `CN1CCN(C2=Nc3cc(Cl)ccc3Nc3ccccc32)CC1` yielded a log partition coefficient (logP) of 3.23.

For `O=C1CNC(=O)N1`, the logP was -1.69. For `Cc1cccc(C)n1` the value was 1.68; for `Cc1cc(Cl)ccc1NN=C(C#N)C(=O)C(C)C`, 4.31; for `CNCc1ccccc1`, 1.52. With `COC(=O)C(C#N)=NNc1ccc(Cl)cc1C` the figure was 4.3; with `CC(=O)C(C#N)=NNc1ccc(Cl)c(Cl)c1`, 4.56; with `O=c1[nH]c2ccccc2n1CCCN1CCC(n2c(=O)[nH]c3cc(Cl)ccc32)CC1`, 3.9.

For the compound `CN1CCN(CCCN2c3ccccc3Sc3ccc(C(F)(F)F)cc32)CC1`, the logP is 5.03.

For `CCS(=O)(=O)CCn1c([N+](=O)[O-])cnc1C`, the lipophilicity (logP) was -0.35. With `CCCCOC(=O)c1ccc(O)cc1` the figure was 3.57.

As for `Nc1ccc(C(=O)O)cc1Cl`, the log partition coefficient (logP) stood at 1.52.

With `CCC(C)c1ccccc1OC(=O)NC` (configuration not stated), the logP was 2.78. With `Cc1cc(=O)oc2cc(O)ccc12` the figure was 1.9; with `COC(=O)c1ccccc1O`, 2.55. For `Brc1ccccc1Br` the value was 3.64. With `NCCc1ccccc1` the figure was 1.41; with `C1CO1`, -0.3; with `Cc1ncc(CO)c(CN)c1O`, -1.3. `Cc1c(Cl)cccc1Nc1ccccc1C(=O)O` returned a lipophilicity (logP) of 5.17. For `Brc1cnc2ccccc2c1` the value was 3.03; for `CCc1ccc(O)cc1`, 2.58; for `Cc1ccnc(NS(=O)(=O)c2ccc(N)cc2)n1`, 0.14. `N#Cc1cccc(OCC(=O)O)c1` returned a logP of 0.95.

`FC(F)(F)c1ccccc1` came in with a logP of 3.01. On to `NC(=O)Cc1ccncc1`, for which the log partition coefficient (logP) is -0.65. For `CCCC` the value was 2.89. Compound `Nc1ccccc1Cl` gave a logP of 1.9. For the compound `O=C1CCCC(=O)N1`, the logP came to 1.9.

Compound `CCOC(=O)c1ccc(O)cc1` had a logP of 2.47. For `COP(=O)(OC)OC` the value was -0.65. For `CCC=Cc1ccccc1[N+](=O)[O-]` the value was 2.86; for `CC(O)Cn1cnc2c1c(=O)n(C)c(=O)n2C` (configuration not stated), -0.77. Consider `O=C(O)c1cccc(I)c1`, for which the logP is 3.13.

Consider `c1ccc(Nc2ccccc2)cc1`, for which the lipophilicity (logP) came out at 3.5. For `CC=Cc1ccccc1` the value was 3.35; for `O=NN1CCOCC1`, -0.44. With `CC(=O)C(C#N)=NNc1cccc(Cl)c1` the figure was 3.9; with `Cc1ccc2c(c1)c([N+](=O)[O-])cc[n+]2[O-]`, 1.43. With `CNC(=O)Oc1ccc(F)cc1` the figure was 1.28; with `COC1=CC(=O)C[C@@H](C)[C@]12Oc1c(Cl)c(OC)cc(OC)c1C2=O`, 2.18.

Regarding `CI`, the logP is 1.51.

Compound `NS(=O)(=O)c1cccc(Cl)c1` gave a log partition coefficient (logP) of 1.29.
